Measurements published in ChEMBL document CHEMBL1130754, “Structure activity relationship study of known inhibitors of the enzyme 5 alpha-reductase (5AR)” (Bioorg Med Chem Lett, 1998).

Legend:
[1] = molecular target: T1, Steroid 5-alpha-reductase (Rattus norvegicus, UniProt P24008+P31214); test: Compound was tested for the inhibitory activity against Steroid 5-alpha-reductase in rat
T1 sequence (P24008 whole entry): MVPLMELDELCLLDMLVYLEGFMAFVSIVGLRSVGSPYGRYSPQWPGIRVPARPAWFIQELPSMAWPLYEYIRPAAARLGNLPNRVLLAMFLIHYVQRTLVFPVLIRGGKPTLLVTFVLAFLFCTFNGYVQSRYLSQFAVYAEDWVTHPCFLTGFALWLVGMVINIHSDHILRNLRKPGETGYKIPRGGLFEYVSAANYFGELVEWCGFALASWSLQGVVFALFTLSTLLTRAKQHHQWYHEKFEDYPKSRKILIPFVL
T1 sequence (P31214 whole entry): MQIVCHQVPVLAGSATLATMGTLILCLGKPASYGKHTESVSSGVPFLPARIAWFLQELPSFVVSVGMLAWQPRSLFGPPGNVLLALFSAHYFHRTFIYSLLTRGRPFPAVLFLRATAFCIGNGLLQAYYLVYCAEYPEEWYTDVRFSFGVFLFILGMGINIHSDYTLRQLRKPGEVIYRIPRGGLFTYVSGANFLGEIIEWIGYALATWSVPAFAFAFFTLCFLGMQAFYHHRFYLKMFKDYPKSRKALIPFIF

[2] = molecular target: T2, 3-oxo-5-alpha-steroid 4-dehydrogenase 1 (Rattus norvegicus, UniProt P24008); test: Compound was tested for the inhibitory activity against Steroid 5-alpha-reductase type 1 in rat
T2 sequence (P24008 whole entry): T1 sequence (P24008 whole entry)

Row | IC50 [1] | IC50 [2] | SMILES
1 | 0.13 nM |  | CCCCCCCCNC(=O)[C@H]1CCC2C3CCC4NC(=O)CC[C@]4(C)C3CC[C@@]21C (some centres undefined)
2 | 6.3 nM |  | CC(C)(C)NC(=O)[C@H]1CCC2C3CCC4NC(=O)CC[C@]4(C)C3CC[C@@]21C (some centres undefined)
3 |  | 4.2 nM | CC(C)(C)NC(=O)[C@H]1CC[C@H]2[C@@H]3CC[C@H]4NC(=O)C=C[C@]4(C)[C@H]3CC[C@]12C [FINASTERIDE]

Row | SMILES | IC50 [1] | IC50 [2]
4 | C[C@]12CCC(=O)C=C1CC[C@@H]1[C@@H]2CC[C@]2(C)C(c3cccnc3)=CC[C@@H]12 | 10000 nM | 
